Laboratory results published in patent US9540323B2 (BRISTOL-MYERS SQUIBB COMPANY, priority 2012, dated 2017).

Key:
[1] = target: cloned human P2Y1 receptors (Homo sapiens (Human), UniProt P47900); experiment: Binding Assay B - Scintillation Proximity Assay (SPA) for P2Y1 binding, [33P] 2MeS-ADP; settings: SPA, 0.3 nM [33P] 2MeS-ADP, Cheng-Prusoff; read-out: P2Y1 Ki (nM) using binding assay B
Experimental: Binding Assay B—Scintillation Proximity Assay (SPA) for P2Y1 Binding
A SPA membrane binding assay was used to identify inhibitors of [^33P] […] Reactions were allowed to proceed to completion at room temperature for 1 hour followed by centrifugation of the plate for 5 min. About 40 μL of the aqueous solution was aspirated. Plates were sealed and the [^33P]

[2] = system: human platelet rich plasma (PRP); experiment: ADP induced platelet aggregation assay; settings: Homo sapiens, Platelet, 5 min, read-out: PA IC50 (μM) @ 10 μM ADP, human PRP, 10 μM ADP, AUC at 5 minute

cloned human P2Y1 receptors, sequence (P47900 whole entry): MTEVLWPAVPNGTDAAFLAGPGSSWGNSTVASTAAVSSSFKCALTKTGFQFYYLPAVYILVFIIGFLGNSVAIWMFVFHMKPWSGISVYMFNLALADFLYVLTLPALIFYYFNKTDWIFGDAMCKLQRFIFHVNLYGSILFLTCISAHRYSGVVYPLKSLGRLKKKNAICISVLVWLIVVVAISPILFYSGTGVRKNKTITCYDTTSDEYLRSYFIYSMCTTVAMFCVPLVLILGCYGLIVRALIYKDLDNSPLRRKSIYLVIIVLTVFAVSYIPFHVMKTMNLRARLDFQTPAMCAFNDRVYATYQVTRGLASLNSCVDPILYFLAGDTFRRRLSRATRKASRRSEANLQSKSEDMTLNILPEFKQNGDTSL

Row | Structure (SMILES) | Ki [1] | IC50 [2]
1 | CC(C)(C)CN1CCc2nc(NC(=O)Nc3ccccc3N3CC(C)(C)c4c(C(F)(F)F)ccc(O)c43)sc2C1 [Example 22, 1-(2-(7-Hydroxy-3,3-dimethyl-4-(trifluoromethyl)indolin-1-yl)phenyl)-3-(5-neopentyl-4,5,6,7-tetrahydrothiazolo[5,4-c]pyridin-2-yl)urea] | 8 nM | 0.21 µM
2 | CC1(C)CN(c2ccccc2NC(=O)Nc2nc3ccc(F)cc3s2)c2c(O)ccc(Br)c21 [Example 1, 1-(2-(4-Bromo-7-hydroxy-3,3-dimethylindolin-1-yl)phenyl)-3-(6-fluorobenzo[d]thiazol-2-yl)urea] | 10.8 nM | 0.47 µM
3 | CC1(C)CN(c2ccc(F)cc2NC(=O)Nc2ccc(F)cc2F)c2c(O)ccc(C(F)(F)F)c21 [Example 60, 1-(2,4-Difluorophenyl)-3-(5-fluoro-2-(7-hydroxy-3,3-dimethyl-4-(trifluoromethyl)indolin-1-yl)phenyl)urea] | 10.6 nM | 0.62 µM
4 | CC1(C)CN(c2ccccc2NC(=O)Nc2ccc(OC(F)(F)F)cc2)c2c(O)cc(F)c(-c3nc4ccc(Cl)cc4s3)c21 [Example 148, 1-(2-(4-(6-Chlorobenzo[d]thiazol-2-yl)-5-fluoro-7-hydroxy-3,3-dimethylindolin-1-yl)phenyl)-3-(4-(trifluoromethoxy)phenyl)urea] | 83 nM | 0.68 µM
5 | CC1(C)CN(c2ccccc2NC(=O)Nc2nc3ccc(F)cc3s2)c2c(O)ccc(-c3nc4cc(Cl)ccc4s3)c21 [Example 100, 1-(2-(4-(5-Chlorobenzo[d]thiazol-2-yl)-7-hydroxy-3,3-dimethylindolin-1-yl)phenyl)-3-(6-fluorobenzo[d]thiazol-2-yl)urea] | 38.4 nM | 0.27 µM
6 | CC1(C)CN(c2ccccc2NC(=O)Nc2ccc(OC(F)(F)F)cc2)c2c(O)ccc(-c3nc4cc(F)ccc4s3)c21 [Example 170, 1-(2-(4-(5-Fluorobenzo[d]thiazol-2-yl)-7-hydroxy-3,3-dimethylindolin-1-yl)phenyl)-3-(4-(trifluoromethoxy)phenyl)urea] | 14.1 nM | 0.25 µM
7 | CC1(C)CN(c2ccccc2NC(=O)Nc2csc(Cl)n2)c2c(O)ccc(Cl)c21 [Example 58, 1-(2-(4-Chloro-7-hydroxy-3,3-dimethylindolin-1-yl)phenyl)-3-(2-chlorothiazol-4-yl)urea] | 4.1 nM | 0.32 µM
8 | CC1(C)CN(c2ccccc2NC(=O)Nc2ccc(OC(F)(F)F)cc2)c2c(O)ccc(-c3cc(F)cc(F)c3)c21 [Example 197, 1-(2-(4-(3,5-Difluorophenyl)-7-hydroxy-3,3-dimethylindolin-1-yl)phenyl)-3-(4-(trifluoromethoxy)phenyl)urea] | 5.1 nM | 0.18 µM
9 | CC1(C)CN(c2ccccc2NC(=O)Nc2nc3ccc(Br)cc3s2)c2c(O)ccc(Br)c21 [Example 42, 1-(2-(4-Bromo-7-hydroxy-3,3-dimethylindolin-1-yl)phenyl)-3-(6-bromobenzo[d]thiazol-2-yl)urea] | 27.7 nM | 0.45 µM
10 | CNc1ncnc2oc(-c3ccc(O)c4c3C(C)(C)CN4c3ccccc3NC(=O)Nc3ccc(OC(F)(F)F)cc3)nc12 [Example 107, 1-(2-(7-Hydroxy-3,3-dimethyl-4-(7-(methylamino)oxazolo[5,4-d]pyrimidin-2-yl)indolin-1-yl)phenyl)-3-(4-(trifluoromethoxy)phenyl)urea] | 24 nM | 3.85 µM
11 | Cc1cc(-c2c(F)cc(O)c3c2C(C)(C)CN3c2ccccc2NC(=O)Nc2ccc(OC(F)(F)F)cc2)cnc1F [Example 192, 1-(2-(5-Fluoro-4-(6-fluoro-5-methylpyridin-3-yl)-7-hydroxy-3,3-dimethylindolin-1-yl)phenyl)-3-(4-(trifluoromethoxy)phenyl)urea] | 8.8 nM | 0.26 µM
12 | CCC1(CC)CN(c2ccccc2NC(=O)Nc2nc3c(s2)CN(CC(F)(F)F)CC3)c2c(O)ccc(Cl)c21 [Example 55, 1-(2-(4-Chloro-3,3-diethyl-7-hydroxyindolin-1-yl)phenyl)-3-(5-(2,2,2-trifluoroethyl)-4,5,6,7-tetrahydrothiazolo[5,4-c]pyridin-2-yl)urea] | 16.2 nM | 0.63 µM
13 | CC1(C)CN(c2ccccc2NC(=O)Nc2ccc(OC(F)(F)F)cc2)c2c(O)cc(F)c(-c3ccc(Cl)cc3)c21 [Example 214, 1-(2-(4-(4-Chlorophenyl)-5-fluoro-7-hydroxy-3,3-dimethylindolin-1-yl)phenyl)-3-(4-(trifluoromethoxy)phenyl)urea] | 13.7 nM | 0.21 µM
14 | CC1(C)CN(c2ccccc2NC(=O)Nc2ccc(OC(F)(F)F)cc2)c2c(O)cc(F)c(-c3nc4cc(F)ccc4s3)c21 [Example 151, 1-(2-(5-Fluoro-4-(5-fluorobenzo[d]thiazol-2-yl)-7-hydroxy-3,3-dimethylindolin-1-yl)phenyl)-3-(4-(trifluoromethoxy)phenyl)urea] | 24.1 nM | 0.48 µM
15 | Cc1cnc2oc(-c3ccc(O)c4c3C(C)(C)CN4c3ccccc3NC(=O)Nc3ccc(OC(F)(F)F)cc3)nc2c1 [Example 102, 1-(2-(7-Hydroxy-3,3-dimethyl-4-(6-methyloxazolo[5,4-b]pyridin-2-yl)indolin-1-yl)phenyl)-3-(4-(trifluoromethoxy)phenyl)urea] | 11.2 nM | 0.97 µM
16 | CC1(C)CN(c2ccccc2NC(=O)Nc2csc(Cl)n2)c2c(O)cc(F)c(-c3nc4ccc(F)cc4s3)c21 [Example 150, 1-(2-Chlorothiazol-4-yl)-3-(2-(5-fluoro-4-(6-fluorobenzo[d]thiazol-2-yl)-7-hydroxy-3,3-dimethylindolin-1-yl)phenyl)urea] | 32.7 nM | 0.41 µM
17 | CCSc1nsc(NC(=O)Nc2ccccc2N2CC(CC)(CC)c3c(F)ccc(O)c32)n1 [Example 33, 1-(2-(3,3-Diethyl-4-fluoro-7-hydroxyindolin-1-yl)phenyl)-3-(3-(ethylthio)-1,2,4-thiadiazol-5-yl)urea] | 7.6 nM | 0.55 µM
18 | CC1(C)CN(c2ccccc2NC(=O)Nc2csc(C(F)(F)F)n2)c2c(O)ccc(-c3ccc(F)cc3)c21 [Example 208, 1-(2-(4-(4-Fluorophenyl)-7-hydroxy-3,3-dimethylindolin-1-yl)phenyl)-3-(2-(trifluoromethyl)thiazol-4-yl)urea] | 11.4 nM | 0.25 µM
19 | CC1(C)CN(c2ccccc2NC(=O)Nc2nc3ccc(Cl)nc3s2)c2c(O)cc(F)c(-c3nc4cc(F)ccc4s3)c21 [Example 153, 1-(5-Chlorothiazolo[5,4-b]pyridin-2-yl)-3-(2-(5-fluoro-4-(5-fluorobenzo[d]thiazol-2-yl)-7-hydroxy-3,3-dimethylindolin-1-yl)phenyl)urea] | 15.4 nM | 0.23 µM
20 | CC1(C)CN(c2ccccc2NC(=O)Nc2nc3ccc(F)cc3s2)c2c(O)cc(F)c(-c3nc4cc(F)ccc4s3)c21 [Example 152, 1-(2-(5-Fluoro-4-(5-fluorobenzo[d]thiazol-2-yl)-7-hydroxy-3,3-dimethylindolin-1-yl)phenyl)-3-(6-fluorobenzo[d]thiazol-2-yl)urea] | 25.4 nM | 0.3 µM
21 | CC(C)(C)CN1CCC(NC(=O)Nc2ccccc2N2CC(C)(C)c3c(-c4ccc(C(F)(F)F)cc4)c(F)cc(O)c32)CC1 [Example 246, 1-(2-(5-Fluoro-7-hydroxy-3,3-dimethyl-4-(4-(trifluoromethyl)phenyl)indolin-1-yl)phenyl)-3-(1-neopentylpiperidin-4-yl)urea] | 14.2 nM | 0.25 µM
22 | CCC1(CC)CN(c2ccccc2NC(=O)Nc2csc(Cl)n2)c2c(O)ccc(Cl)c21 [Example 53, 1-(2-(4-Chloro-3,3-diethyl-7-hydroxyindolin-1-yl)phenyl)-3-(2-chlorothiazol-4-yl)urea] | 5 nM | 0.28 µM
23 | CC1(C)CN(c2ccccc2NC(=O)Nc2ccc(OC(F)(F)F)cc2)c2c(O)cc(F)c(-c3ccc(F)nc3)c21 [Example 188, 1-(2-(5-Fluoro-4-(6-fluoropyridin-3-yl)-7-hydroxy-3,3-dimethylindolin-1-yl)phenyl)-3-(4-(trifluoromethoxy)phenyl)urea] | 4.7 nM | 0.38 µM
24 | COc1ccc2nc(NC(=O)Nc3ccccc3N3CC(C)(C)c4c(-c5nc6ccc(F)cc6s5)c(F)cc(O)c43)sc2c1 [Example 179, 1-(2-(5-Fluoro-4-(6-fluorobenzo[d]thiazol-2-yl)-7-hydroxy-3,3-dimethylindolin-1-yl)phenyl)-3-(6-methoxybenzo[d]thiazol-2-yl)urea] | 22.6 nM | 0.49 µM
25 | CC1(C)CN(c2ccccc2NC(=O)Nc2csc(Cl)n2)c2c(O)ccc(-c3ccc(F)cc3)c21 [Example 198, 1-(2-Chlorothiazol-4-yl)-3-(2-(4-(4-fluorophenyl)-7-hydroxy-3,3-dimethylindolin-1-yl)phenyl)urea] | 4.9 nM | 0.09 µM
26 | Cc1cc(-c2ccc(O)c3c2C(C)(C)CN3c2ccccc2NC(=O)Nc2ccc(OC(F)(F)F)cc2)cnc1F [Example 119, 1-(2-(4-(6-Fluoro-5-methylpyridin-3-yl)-7-hydroxy-3,3-dimethylindolin-1-yl)phenyl)-3-(4-(trifluoromethoxy)phenyl) urea] | 3.3 nM | 0.47 µM
27 | Cc1cccc2nc(-c3ccc(O)c4c3C(C)(C)CN4c3ccccc3NC(=O)Nc3ccc(OC(F)(F)F)cc3)oc12 [Example 93, 1-(2-(7-Hydroxy-3,3-dimethyl-4-(7-methylbenzo[d]oxazol-2-yl)indolin-1-yl)phenyl)-3-(4-(trifluoromethoxy)phenyl)urea] | 52 nM | 0.8 µM
28 | CC1(C)CN(c2ccccc2NC(=O)Nc2ccc(OC(F)(F)F)cc2)c2c(O)c(F)cc(Cl)c21 [Example 65, 1-(2-(4-Chloro-6-fluoro-7-hydroxy-3,3-dimethylindolin-1-yl)phenyl)-3-(4-(trifluoromethoxy)phenyl)urea] | 14.1 nM | 0.83 µM
